Read-outs that look alike come from different tables or passages of the source.
Columns and labels:
Type in all cases: physicochemical
[1] = solubility of the compound of formula (I) in media and formulations
[2] = chemical stability of formulations: impurity content by HPLC over time; conditions: versus PS80 and PS80/ethanol formulations; especially 25° C./60% RH and 30° C./65% RH
Method: A study of chemical stability by measuring the impurity content by high performance liquid chromatography (HPLC) was carried out on the formulations making it possible to achieve the target solubility.

[3] = physical stability of the perfusion solution (no visible precipitation); conditions: perfusion solution from compound of formula (I) in PEG alone

For `CC(C)(C)NC(=O)Nc1nc2nc(Nc3ccc4nsnc4c3)ncc2cc1-c1c(Cl)cccc1Cl` [compound of formula (I)], which solubility ([1]; medium: PEG 400) is on record?
The solubility was 9.5 mg/g.

What about the solubility ([1]; medium: ethanol) of the same compound?
The solubility was 3.8 mg/g.

What about the solubility ([1]; medium: propylene glycol) of the same compound?
Its solubility is 1 mg/g.

And the solubility ([1]; medium: tert-butanol)?
Its solubility is 1.2 mg/g.

And the solubility ([1]; medium: water)?
Its solubility is <0.006 mg/g.

And the solubility ([1]; organic solvent or mixture, dilution in PEG alone, read-out: solubility)?
The solubility was ≤ 7000 µg/mL.

What about the “chemical stability compared between formulations” value [2] of the same compound?
The value was “degrades less rapidly”.

And the “physical stability of the perfusion solution” value [3]?
Its value is < 24 h.
